Data taken from US12606520B2, “Calpain-2 inhibitor compounds and methods of treatment” (WESTERN UNIVERSITY OF HEALTH SCIENCES, priority 2020, dated 2026).

Experiments:
[1] = Stability in mouse plasma at 37° C. (residual inhibition of purified human calpain-2); assay type: in vitro ADME; conditions: mouse, mouse plasma, B-cyclodextrin formulation, 0.2 mM, read-out: Estimated half-life in mouse plasma (converted)
Experimental: NA112 (C12, 0.2 mM) was incubated with mouse plasma at 37° C. for the indicated periods of time. Aliquots were taken and the degree of inhibition of purified human calpain-2 was measured. Results were normalized to the maximum degree of inhibition (100%) measured at to.
NA112A in β-cyclodextrin formulation (10 μM) was incubated in mouse plasma at 37° C. for the indicated periods of time. Aliquots were taken and the degree of inhibition of purified human calpain-2 was measured. Results were normalized to the maximum degree of inhibition (50%) measured at t0.

[2] = biological target: T1, calpain-2 (Mus musculus, UniProt O08529); assay: Calpain-2 activity in calpain-1 KO mouse cerebellar homogenate (2 mM Ca2+), Suc-Leu-Tyr-AMC cleavage; assay type: biochemical; design: Calpain-2 activity=calpain activity under 2000 uM Ca^2+ in calpain-1 KO mice; from tissue; host or cells: calpain-1 knock-out mouse cerebellar (P2) homogenate
T1 sequence (O08529 1-700): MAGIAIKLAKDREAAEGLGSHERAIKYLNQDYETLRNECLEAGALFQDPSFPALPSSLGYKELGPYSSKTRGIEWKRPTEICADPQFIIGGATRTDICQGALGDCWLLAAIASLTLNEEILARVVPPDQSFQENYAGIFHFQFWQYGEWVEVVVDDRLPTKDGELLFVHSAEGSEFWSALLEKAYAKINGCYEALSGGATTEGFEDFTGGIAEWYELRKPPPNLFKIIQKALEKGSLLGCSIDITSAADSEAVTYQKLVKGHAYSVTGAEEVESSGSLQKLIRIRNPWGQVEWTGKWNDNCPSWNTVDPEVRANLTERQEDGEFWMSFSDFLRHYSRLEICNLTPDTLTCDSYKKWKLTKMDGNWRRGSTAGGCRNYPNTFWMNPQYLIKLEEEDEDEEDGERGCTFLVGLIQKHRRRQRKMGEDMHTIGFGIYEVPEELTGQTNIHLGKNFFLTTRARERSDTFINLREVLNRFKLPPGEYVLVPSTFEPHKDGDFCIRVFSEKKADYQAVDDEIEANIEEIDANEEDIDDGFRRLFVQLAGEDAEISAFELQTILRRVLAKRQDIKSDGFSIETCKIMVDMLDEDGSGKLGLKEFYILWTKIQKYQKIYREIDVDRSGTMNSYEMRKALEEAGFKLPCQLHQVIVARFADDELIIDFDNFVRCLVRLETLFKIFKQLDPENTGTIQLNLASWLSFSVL
T1 sequence (O88456 1-268 partner): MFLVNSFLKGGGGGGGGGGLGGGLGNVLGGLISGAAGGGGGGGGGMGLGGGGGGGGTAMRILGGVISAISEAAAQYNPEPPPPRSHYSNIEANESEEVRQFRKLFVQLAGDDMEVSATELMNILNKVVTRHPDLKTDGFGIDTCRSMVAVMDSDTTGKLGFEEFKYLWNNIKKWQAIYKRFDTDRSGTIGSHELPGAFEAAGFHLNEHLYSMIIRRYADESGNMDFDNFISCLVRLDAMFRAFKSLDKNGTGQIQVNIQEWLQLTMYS
Experimental: Cerebellar homogenates from wild-type (WT) or calpain-1 Knock-out (KO) mice were incubated with 20 μM calcium to activate calpain-1 or with 2 mM calcium to activate calpain-2, respectively, and increasing concentrations of NA112 (12). Calpain activity was measured by the cleavage of Succinyl-Leu-Tyr-7-amino-4-methylcoumarin (Suc-Leu-Tyr-AMC), resulting in increased fluorescence. Activity is normalized to the value measured in the presence of vehicle (DMSO).
WT or calpain-1 KO mouse cerebellar P2 homogenate (crude synaptosomal fraction) were used for measuring inhibitory activity of compounds against the mouse endogenous calpain-1/-2. Each reaction contains 100 ul of WT or calpain-1 KO mouse cerebellar P2 homogenate+0, 20 or 2000 uM Ca^2++0-10,000 nM NA184.
Calpain-2 activity=calpain activity under 2000 uM Ca^2+ in calpain-1 KO mice

[3] = biological target: T2, calpain-1 (Rattus norvegicus, UniProt P97571); assay: Calpain-1 activity in brain after TBI in rats; assay type: in vivo; conditions: 1 mg/kg i.p. at 1 h and 8 h after TBI, 24 h after TBI
T2 construct: from tissue; host or cells: rat brain after TBI
T2 sequence (P97571 1-713): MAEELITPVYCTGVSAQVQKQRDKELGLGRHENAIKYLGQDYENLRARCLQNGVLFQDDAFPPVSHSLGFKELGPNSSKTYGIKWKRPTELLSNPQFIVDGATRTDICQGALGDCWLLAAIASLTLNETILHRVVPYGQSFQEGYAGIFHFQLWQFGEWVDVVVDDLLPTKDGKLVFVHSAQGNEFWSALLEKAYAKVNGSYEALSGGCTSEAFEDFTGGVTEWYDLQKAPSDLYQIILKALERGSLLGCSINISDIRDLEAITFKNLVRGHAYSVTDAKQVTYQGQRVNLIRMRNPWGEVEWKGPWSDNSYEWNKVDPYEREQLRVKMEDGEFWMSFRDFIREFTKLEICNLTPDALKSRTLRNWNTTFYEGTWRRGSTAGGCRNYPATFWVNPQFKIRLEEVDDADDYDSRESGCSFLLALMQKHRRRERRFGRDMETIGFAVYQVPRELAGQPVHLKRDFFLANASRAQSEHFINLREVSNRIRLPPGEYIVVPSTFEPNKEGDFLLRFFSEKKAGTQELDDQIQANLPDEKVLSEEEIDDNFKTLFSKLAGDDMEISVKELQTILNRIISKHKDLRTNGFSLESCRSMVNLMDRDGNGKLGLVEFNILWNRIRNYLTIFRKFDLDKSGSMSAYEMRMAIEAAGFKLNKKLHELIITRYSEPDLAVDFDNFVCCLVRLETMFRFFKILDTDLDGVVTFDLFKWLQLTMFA
T2 sequence (Q64537 1-270 partner): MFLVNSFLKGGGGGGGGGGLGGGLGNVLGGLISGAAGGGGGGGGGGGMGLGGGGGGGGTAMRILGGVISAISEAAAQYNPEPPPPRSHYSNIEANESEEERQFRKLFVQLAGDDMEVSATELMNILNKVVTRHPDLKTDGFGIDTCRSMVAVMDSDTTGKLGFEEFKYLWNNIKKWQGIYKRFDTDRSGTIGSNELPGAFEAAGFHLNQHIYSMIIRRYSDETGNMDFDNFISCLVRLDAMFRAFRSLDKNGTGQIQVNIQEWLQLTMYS
Experimental: We also performed the same model of TBI in male and female mice and in male and female rats. In all cases, NA184 was injected i.p. at 1 mg/kg. For the rat experiments, NA184 was injected twice at 1 h and 8 h after TBI. Animals were sacrificed 24 h after TBI and calpain activity was assayed in brain and cell death was analyzed in cortex. […] In addition, there was a highly significant correlation between calpain-2 activity and cell death in rats (FIG. 23). R^2 was 0.61 and p<0.005.

Row | Structure (SMILES) | half-life at 0.2 mM [1] | IC50 ([2]; read-out: IC50, 2000 μM Ca^2+ (calpain-1 KO), calpain-1 KO mouse cerebellar homogenate, 2 mM calcium) | Ratio (IC50 calpain-1/calpain-2) ([2]; mouse cerebellar P2 homogenate) | Calpain-1 inhibition in brain, male and female rats [3]
1 | CCC(NC(=O)[C@H](CC(C)C)NC(=O)NCc1ccccc1)C(=O)C(=O)NCc1cc(OC)cc(OC)c1 (mixture of isomers) [NA112, (2S)-2-(3-benzylureido)-N-(1-((3,5-dimethoxybenzyl)amino)-1,2-dioxopentan-3-yl)-4-methylpentanamide] | 17 h | 0.106 µM |  | 
2 | CCC(NC(=O)[C@H](CC(C)C)NC(=O)NCc1ccccc1)C(=O)C(=O)NCc1cccc(Cl)c1OC (stereo partly drawn) [NA184, (2S)-2-(3-benzylureido)-N-(1-((3-chloro-2-methoxybenzyl)amino)-1,2-dioxopentan-3-yl)-4-methylpentanamide] |  |  | 21 | not calpain-1
